# What was measured:
# [1] = test system: Mycobacterium tuberculosis; assay: Antimycobacterial activity against Mycobacterium tuberculosis; type: functional; settings: for MIC: Mycobacterium tuberculosis
# [2] = test system: Mycobacterium tuberculosis; assay: Antimycobacterial activity against Mycobacterium tuberculosis H37Rv; type: functional
SMILES,MIC [1],MIC [2],other results
c1cc2c[n+](c1)CCCCCCCCCCCCc1ccc[n+](c1)CCCCCCCCCCC2,9.3 µg/mL,,
O=C1c2c(O)ccnc2-c2nccc3c2c1nc1ccccc13,,> 42 µM,
CCCC/C=C\CCCCc1cc(=O)c2ccccc2n1C,2 µg/mL,,
COC1=CC(=O)c2nc3ccccc3c3ccnc1c23,,1.5 µM,
CCSC1=CC(=O)c2nc3ccccc3c3ccnc1c23,,0.34 µM,
Cn1c(=O)ccc2ccccc21,6.25 µg/mL,,
CCCCCCCCC/C=C/C=C/C(=O)NCC(C)C,,6.2 µg/mL,
Nc1nc(/C=C/CNC(=O)c2cc(Br)c[nH]2)c[nH]1,,6.1 µg/mL,
c1cc2c[n+](c1)CCCCCCCCCCCCCc1ccc[n+](c1)CCCCCCCCCCCCC2,,4 µg/mL,
COC(=O)c1ccc2[nH]c3ccccc3c2c1,50 µg/mL,,
COc1c(O)c2c3c(c1OC)CCN[C@H]3Cc1cc3c(cc1-2)OCO3.Cl,4 µg/mL,,
COc1ccc(CCC2CCc3ccccc3N2C)cc1OC (stereo not drawn),6.25 µg/mL,,
COC(=O)N1CCc2c(OC)c(OC)c(O)c3c2[C@@H]1Cc1cc2c(cc1-3)OCO2,128 µg/mL,,
COc1c(O)c2c3c(c1OC)CCN[C@H]3Cc1cc3c(cc1-2)OCO3,64 µg/mL,,
Cc1ccc(SC2=CC(=O)c3nc4ccccc4c(C)c3C2=O)cc1,,2.2 µM,
CCCC/C=C\CCCCCCc1cc(=O)c2ccccc2n1C,2 µg/mL,,
c1cc2c[n+](c1)CCCCCCCCCCCCCCc1ccc[n+](c1)CCCCCCCCCC2,5.3 µg/mL,,
C/C=C/[C@H]1C=C[C@H]2[C@@H]3C[C@H](C)CC[C@H]3[C@@H]3Oc4ccc(cc4)C[C@@H]4C(=O)NC(=O)[C@H]4C(=O)[C@@H]1[C@H]23,,,IC [1]: 3.125 µg/mL
O=C1C(c2ccc(O)cc2)=C2C(=C(c3ccc(O)cc3)C(=O)N2CCc2ccc(O)cc2)c2ccc(O)cc21,,4 µg/mL,
CC(=O)NCCC1=C2Nc3ccccc3C3C=CN=C(C4=C1SCO4)C23 (stereo not drawn),17 µM,,
C=C[C@H]1C=C[C@H]2[C@@H]3C[C@H](C)CC[C@H]3[C@@H]3Oc4ccc(cc4)C[C@]4(O)NC(=O)[C@]5(O[C@H]54)C(=O)[C@@H]1[C@H]23,,,IC [1]: 0.78 µg/mL
C=C[C@@]1(C)C(Cl)C[C@@H]2C(C)(C)c3cccc4[nH]c5c(c34)[C@@]2(O)[C@]1(C#N)[C@@]1(CO1)C5(C)C (stereo partly drawn),,2 µM,
CN1C=NC2=C(N)NCNC21 (stereo not drawn),,6.25 µg/mL,
CO/N=c1\[nH]cnc2c1[n+](C/C=C(\C)CC/C=C(\C)CCC1CCCCC1)cn2C.[Cl-],,1.56 µg/mL,
CCCCC/C=C\C/C=C\CCCCc1cc(=O)c2ccccc2n1C,2 µg/mL,,

SMILES,MIC [1],MIC [2],other results
O=C1C(c2ccc(O)cc2)=C(c2ccc(O)cc2)/C(=C/c2ccc(O)cc2)N1CCc1ccc(O)cc1,,32 µg/mL,
O=C(NN1C(=O)C(Cl)C1c1ccc(Cl)cc1)c1cc(O)c(O)c(O)c1 (stereo not drawn),0.83 µg/mL,,
C=C1CCCC(C)(C)[C@H]1CC/C(C)=C/CC/C(C)=C/C[n+]1cn(C)c2nc[nH]/c(=N\OC)c21.[Cl-],,3 µg/mL,
C=C[C@H]1C=C[C@H]2[C@@H]3C[C@H](C)CC[C@H]3[C@@H]3Oc4ccc(cc4)C[C@@H]4C(=O)NC(=O)[C@H]4C(=O)[C@@H]1[C@H]23,,,IC [1]: 0.78 µg/mL
CC(=O)NCCC1C2=C3C(=NC=CC3c3ccccc3N2)C2=C1SCC(=O)N2 (stereo not drawn),32 µM,,
CC(=O)NCCC1C2=C3C(=NC=CC3c3ccccc3N2)c2ncsc21 (stereo not drawn),34 µM,,
C=C[C@H]1C=C[C@H]2[C@@H]3C[C@H](C)CC[C@H]3[C@@H]3Oc4ccc(cc4)C[C@@]4(O)C[C@H](C(=O)N4)C(=O)[C@@H]1[C@H]23,,,IC [1]: 0.78 µg/mL
c1cc2c[n+](c1)CCCCCCCCCCCCCCc1ccc[n+](c1)CCCCCCCCCCC2,4.6 µg/mL,,
CO/N=c1\[n-]cnc2c1[n+](C/C=C(\C)CC/C=C(\C)CCC1=C(C)CCCC1(C)C)cn2C,,,IC [1]: 6.25 µg/mL
CCCCC/C=C\C/C=C\CCc1cc(=O)c2ccccc2n1C,2 µg/mL,,
CC(=O)C[C@@H]1C[C@H]2[C@H]([C@@H]3c4[nH]c5ccccc5c4CCN13)[C@H](O)C13CC/C=C\CCCCN1C[C@@]21CC/C=C\CCCCN[C@@H]31,,5.2 µg/mL,
O=C1C(c2ccc(O)cc2)=C(c2ccc(O)cc2)C(=O)N1CCc1ccc(O)cc1,,16 µg/mL,
Oc1ccc2[nH]c3c(C4=C[C@@]5(O)CC/C=C\CCCCN6CC[C@@H]4C4(C[C@@H]7/C=C\CCCCN7C45)C6)nccc3c2c1 (stereo partly drawn),,1.9 µg/mL,
O=C(NN1C(=O)C(Cl)C1c1cccc(Cl)c1)c1cc(O)c(O)c(O)c1 (stereo not drawn),0.57 µg/mL,,
CCCCCCCCCCCc1cc(=O)c2ccccc2n1C,2 µg/mL,,
C=C[C@@]1(C)[C@H](Cl)C[C@@H]2C(C)(C)c3cccc4[nH]c5c(c34)[C@@]2(O)[C@]1(C#N)C=CC5(C)C,,2.8 µg/mL,
Nc1c(Br)cc(O)c(CC(=O)O)c1Br,,15.9 µg/mL,
C=C1c2[nH]cc(Br)c2[C@H]2NC(N)=N[C@]23CCCN13,,64 µg/mL,
CN(C)c1ccc(C2C(Cl)C(=O)N2NC(=O)c2cc(O)c(O)c(O)c2)cc1 (stereo not drawn),0.62 µg/mL,,
CC(=O)C[C@H]1C[C@H]2[C@H]([C@@H]3c4[nH]c5ccccc5c4CCN13)[C@H](O)C13CC/C=C\CCCCN1C[C@@]21CC/C=C\CCCCN[C@@H]31,,1.5 µg/mL,
C=C[C@]1(C)C/C=C(/C#N)C(C)(C)c2[nH]c3cccc4c3c2C(=C)[C@H](CC1Cl)C4(C)C (stereo partly drawn),,53.7 µM,
CC1=C(CC/C(C)=C/CC/C(C)=C/C[n+]2cn(C)c3nc[n-]/c(=N\OC(C)(C)C)c32)C(C)(C)CCC1,,,IC [1]: 6.25 µg/mL
c1cc2c[n+](c1)CCCCCCCCCCCCc1ccc[n+](c1)CCCCCCCCCC2,4.6 µg/mL,,
c1cc2c[n+](c1)CCCCCCCCCCCCCc1ccc[n+](c1)CCCCCCCCCC2,6.6 µg/mL,,
CO/N=c1\[nH]cnc2c1[n+](C/C=C(\C)CC/C=C(\C)CC/C=C(\C)CCC=C(C)C)cn2C.[Cl-],,3.13 µg/mL,

SMILES,MIC [1],MIC [2],other results
O=C(NN1C(=O)C(Cl)C1c1ccccc1Cl)c1cc(O)c(O)c(O)c1 (stereo not drawn),0.76 µg/mL,,
CC1CCC(=NNC(=O)c2[nH]c3ccc(F)cc3c2-c2ccccc2)CC1 (stereo not drawn),,6.25 µg/mL,
CCCC1CCC2(CC1)SCC(=O)N2NC(=O)c1[nH]c2ccc(F)cc2c1-c1ccccc1 (stereo not drawn),,6.25 µg/mL,
Cc1ccc(SC2=CC(=O)c3nc4ccccc4c4ccnc2c34)cc1,,9 µM,
COc1cc2c(cc1OC)C(CC(C)=O)N(C)c1c-2ccc2cc3c(cc12)OCO3 (stereo not drawn),,6.2 µg/mL,
[C-]#[N+][C@]12[C@H]3O[C@H]3C(C)(C)c3[nH]c4cccc5c4c3[C@]1(O)[C@H](CC[C@]2(C)C=C)C5(C)C,13.1 µM,,
[C-]#[N+][C@@H]1[C@@H]2c3c(C(C)(C)C=C)[nH]c4cccc(c34)C(C)(C)[C@H]2C[C@@H](Cl)[C@]1(C)C=C [AMBIGUINE A ISONITRILE],46.7 µM,,
[C-]#[N+][C@@H]1[C@]2(O)c3c(C(C)(C)C=C)[nH]c4cccc(c34)C(C)(C)[C@H]2CC[C@]1(C)C=C [AMBIGUINE C ISONITRILE],7 µM,,
[C-]#[N+][C@]12[C@H]3O[C@H]3C(C)(C)c3[nH]c4cccc5c4c3[C@]1(O)[C@H](C[C@@H](Cl)[C@]2(C)C=C)C5(C)C [AMBIGUINE E ISONITRILE],21 µM,,
[C-]#[N+][C@]12C=CC(C)(C)c3[nH]c4cccc5c4c3[C@]1(O)[C@H](CC[C@]2(C)C=C)C5(C)C [AMBIGUINE L ISONITRILE],4.5 µg/mL,,
[C-]#[N+][C@]12C[C@@H](O)C(C)(C)c3[nH]c4cccc5c4c3[C@]1(O)[C@H](C[C@@H](Cl)[C@]2(C)C=C)C5(C)C [AMBIGUINE M ISONITRILE],3.3 µg/mL,,
[C-]#[N+][C@]12C[C@@H](O)C(C)(C)c3[nH]c4cccc5c4c3[C@]1(O)[C@H](CC[C@]2(C)C=C)C5(C)C [AMBIGUINE N ISONITRILE],10.9 µg/mL,,
Nc1c(Br)cc(Br)cc1CN[C@H]1CC[C@H](O)CC1 [AMBROXOL],6 µg/mL,,
CN(Cc1cc(Br)cc(Br)c1N)C1CCCCC1 [BROMHEXINE],6 µg/mL,,
COc1ccc2c(c[n+](C)c3c4cc5c(cc4ccc23)OCO5)c1OC.[Cl-] [CHELERYTHRINE CHLORIDE],14.3 µg/mL,,
COc1ccc2c(c1)[nH]c1cc(OC)c(C(=O)O)cc12 [CLAUSINE K],100 µg/mL,,
C=CC(C)(C)c1[nH]c2c(CC=C(C)C)cc(CC=C(C)C)cc2c1C[C@@H]1NC(=O)[C@H](C)NC1=O [ECHINULIN],170 µg/mL,,
[C-]#[N+][C@@H]1[C@@H]2c3c[nH]c4cccc(c34)C(C)(C)[C@H]2C[C@@H](Cl)[C@]1(C)C=C [HAPALINDOLE G],6.8 µM,,
[C-]#[N+][C@@H]1[C@H]2c3c[nH]c4cccc(c34)C(C)(C)[C@@H]2CC[C@]1(C)C=C [HAPALINDOLE H],58.8 µM,,
O=[N+]([O-])c1cn2c(n1)OC[C@@H](OCc1ccc(OC(F)(F)F)cc1)C2 [PRETOMANID],0.015 µg/mL,,
CO[C@H]1/C=C/O[C@@]2(C)Oc3c(C)c(O)c4c(O)c(c(/C=N/N5CCN(C6CCCC6)CC5)c(O)c4c3C2=O)NC(=O)/C(C)=C\C=C\[C@H](C)[C@H](O)[C@@H](C)[C@@H](O)[C@@H](C)[C@H](OC(C)=O)[C@@H]1C [RIFAPENTINE],0.02 µg/mL,,
C[n+]1cc2c3c(ccc2c2ccc4cc5c(cc4c21)OCO5)OCO3.[Cl-] [SANGUINARIUM CHLORIDE],24.5 µg/mL,,
O=[N+]([O-])c1cn2c(n1)OC[C@@H](OCc1ccc(-c3ccc(OC(F)(F)F)cc3)nc1)C2 [TBA-354],0.34 µg/mL,,
